Data taken from patent US7071316B1, “Human Akt-3” (Janssen Pharmaceutica N.V., priority 1998, dated 2006).
“And” between values parts separate entries of the source, which are not always exact repeats. Equal entries are not always repeated.

Columns and labels:
[1] = biological target: T1, T305D,S472D variant of Akt-3 (Homo sapiens, UniProt Q9Y243, S472D/T305D); assay: Akt-3 histone H2B phosphorylation assay (GST fusion protein from E. coli, phosphorimager after SDS-PAGE); assay type: biochemical; conditions: for effect on the activity of the T305D,S472D variant of Akt-3: tested at a concentration of 10 FM
T1 construct: made in house; host or cells: E. coli BL21 DE3 (pGEX-4T-3)
Experimental: After 30 minutes, the reaction was terminated and the extent of H2B phosphorylation quantified on a phosphorimager following SDS-PAGE.
The pGEX expression constructs were transformed into E. coli strain BL21 DE3 and GST-fusion proteins of wild-type and mutated Akt-3 were purified on glutathione sepharose according to the manufacturers instructions (Amersham Pharmacia Biotech, Uppsala, Sweden). The protein eluted from the beads was stored in 50% glycerol at −20° C. Akt activity was assessed by incubating 0.8 Fg of the purified enzyme for 30 minutes at room temperature (unless otherwise indicated) in a buffer containing 10 mM HEPES, 10 mM MgCl2, 1 mM DTT, 0.1 mg/ml histone H2B at pH 7.0, in a total volume of 25 Fl and containing 10 FCi [γ-^32P]-ATP (6000 Ci/mmol). […] The reaction was stopped by the addition of 25 Fl sample buffer for SDS-PAGE. The results were quantified on a phosphorimager following SDS-PAGE on a 15% (w/v) acrylamide gel.

Akt-3 [2] = assay: Activation of HA-tagged Akt-3 by IGF in transfected HEK-293 cells (immunoprecipitate, Crosstide phosphorylation); assay type: cell-based, human
Experimental: FIG. 3 is an illustration of phosphorylation of histone H2B by Akt-3 variants. (A) Akt-3 was expressed as a GST fusion protein in E. Coli. To assess hAkt-3 activity, Histone H2B was incubated with GST-Akt-3 and GST-Akt-3 variants for the indicated time and the extent of phosphorylation assessed after SDS-PAGE. The variants of Akt-3 are designated: W.T., wild type; T305D, Thr^305 mutated to Asp; S472D, Ser^472 mutated to Asp; T305D,S472D, both Thr^305 and Ser^472 mutated to Asp. No significant phosphorylation was observed when GST was used in place of GST-Akt. […] Samples were analysed by blotting for the HA-tag (upper panel) or with a phosphospecific antibody which recognises phosphorylated ser^472 (lower panel). (C) Akt activity in HA-immuno-precipitates from samples prepared as described above was assessed by measuring phosphorylation of a peptide substrate (Crosstide). The results are expressed as the increase in activity compared to unstimulated cells transfected with empty vector (mean±s.e.m., n=7).
For expression in HEK-293 cells, cells were transfected with pCDNA-3 Akt-3 constructs as described previously (Alessi et al 1996). […] Akt activity was assessed in immune complexes by measuring phosphorylation of a peptide substrate (Crosstide) in the presence of 1 μM PKI (PKA inhibitor) and 1 μM […] (PKC inhibitor) as described.

PKC [3] = assay: Inhibition of PKC (literature, Davis et al., 1992); assay type: biochemical; conditions: more potent inhibitor of PKC than of Akt-3
PKC [4] = conditions: Davis, et al., 1992; cited from earlier work
histone H2B [5] = tested on: histone H2B
Akt-3 [6] = assay: Activation of HA-tagged Akt-3 by IGF-1 in transfected Cos-7 cells (HA immunoprecipitates); assay type: cell-based, human; conditions: stimulation with IGF-1 10 ng/ml, n=2
Experimental: Akt-3 was transiently expressed in Cos-7 by calcium phosphate transfection of the cells with the construct HA-hAkt-3/pcDNA-3. The cells were stimulated with 10 ng/ml IGF-1 for 30 minutes, lysed and Akt-3 immunoprecipitated with mAb 12CA5. Akt-3 activity was assessed as described below.

histone H2B [7] = biological target: histone H2B; remark: listed apart in the source

T1 sequence (Q9Y243 whole entry T305D/S472D, the tested form may be a part): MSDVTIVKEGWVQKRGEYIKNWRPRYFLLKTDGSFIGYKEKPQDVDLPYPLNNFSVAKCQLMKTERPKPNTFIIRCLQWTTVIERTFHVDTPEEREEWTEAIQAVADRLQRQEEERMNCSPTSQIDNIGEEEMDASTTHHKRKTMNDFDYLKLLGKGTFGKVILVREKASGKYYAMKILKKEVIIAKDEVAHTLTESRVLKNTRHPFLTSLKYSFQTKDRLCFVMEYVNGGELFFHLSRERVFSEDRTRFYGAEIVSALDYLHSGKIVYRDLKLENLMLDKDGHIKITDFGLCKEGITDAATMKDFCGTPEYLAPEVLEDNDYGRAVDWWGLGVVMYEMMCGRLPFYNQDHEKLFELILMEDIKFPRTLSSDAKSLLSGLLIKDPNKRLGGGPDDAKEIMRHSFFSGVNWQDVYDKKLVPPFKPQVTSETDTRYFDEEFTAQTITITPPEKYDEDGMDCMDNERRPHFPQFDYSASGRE

## CN([C@@H](Cc1ccc(OS(=O)(=O)c2cccc3cnccc23)cc1)C(=O)N1CCN(c2ccccc2)CC1)S(=O)(=O)c1cccc2cnccc12 [KN-62]
[1]
  effect on the activity of the T305D,S472D variant of Akt-3: no significant effect

## O=c1cc(N2CCOCC2)oc2c(-c3ccccc3)cccc12 [CY29 4002]
Akt-3 [2]; prior treatment, 100 FM, HEK-293 cells stimulated with IGF, data not shown
  inhibition of activation of Akt-3: 94%

## Cn1cc(C2=C(c3cn(CCCSC(=N)N)c4ccccc34)C(=O)NC2=O)c2ccccc21 [Ro 31-8220]
PKC [3]
  potency as inhibitor of PKC relative to Akt-3: approximately 100 fold
PKC [4]
  IC50: 0.1 nM
[1]; discussion summary of the inhibitor panel
  inhibition of Akt-3 (in words): potently inhibited

## GST-Akt-3 S472D (construct hAKT-3(S472D)/pGEX-4T-3)
Histone H2B [5]
  initial rate of phosphorylation of histone H2B, relative to the wild-type enzyme: increased the initial rate only 1.4 fold

## CCCCCCOC(=O)[C@]1(O)C[C@@H]2O[C@@]1(C)n1c3ccccc3c3c4c(c5c6ccccc6n2c5c31)C(=O)NC4 [KT5720]
[1]
  effect on the activity of the T305D,S472D variant of Akt-3: no significant effect

## CN(C)CCCn1cc(C2=C(c3c[nH]c4ccccc34)C(=O)NC2=O)c2ccccc21 [GF-109203×]
[1]
  effect on the activity of the T305D,S472D variant of Akt-3: no significant effect

## GST-Akt-3 T305D,S472D (construct hAKT-3(T305D/S472D)/pGEX-4T-3)
Histone H2B [5]
  initial rate of phosphorylation of histone H2B, relative to the wild-type enzyme: 3.2-fold increase

## O=S(=O)(NCCNC/C=C/c1ccc(Br)cc1)c1cccc2cnccc12 [H-89]
[1]
  effect on the activity of the T305D,S472D variant of Akt-3: no significant effect

## O=S(=O)(NCCNCC=Cc1ccccc1)c1cccc2cnccc12 [H-88]
[1]
  effect on the activity of the T305D,S472D variant of Akt-3: no significant effect

## Cn1c2ccccc2c2c3c(c4c5ccccc5n(CCC#N)c4c21)CNC3=O [Go 6976]
[1]
  effect on the activity of the T305D,S472D variant of Akt-3: no significant effect

## IGF-1: extracellular stimulus (growth factor) used to activate Akt-3 in transfected cells
Akt-3 [2]; upon treatment with IGF (50 ng/ml), above that in untransfected cells, HEK-293
  increase of Akt-3 activity in anti-HA immunoprecipitates: ~60 fold
Akt-3 [6]
  increase of Akt-3 activity in HA immunoprecipitates: 1.5 fold and 1.9 fold

## COc1cccc(-c2cc(=O)c3ccccc3o2)c1N [PD 98059]
[1]
  effect on the activity of the T305D,S472D variant of Akt-3: no significant effect

## GST-Akt-3 T305D (construct hAKT-3(T305D)/pGEX-4T-3)
Histone H2B [5]
  initial rate of phosphorylation of histone H2B, relative to the wild-type enzyme: 2.0-fold increase

B1: GST-Akt-3 wild type (construct hAKT-3(WT)/pGEX-4T-3) (protein)
chain: MSDVTIVKEGWVQKRGEYIKNWRPRYFLLKTDGSFIGYKEKPQDVDLPYPLNNFSVAKCQLMKTERPKPNTFIIRCLQWTTVIERTFHVDTPEEREEWTEAIQAVADRLQRQEEERMNCSPTSQIDNIGEEEMDASTTHHKRKTMNDFDYLKLLGKGTFGKVILVREKASGKYYAMKILKKEVIIAKDEVAHTLTESRVLKNTRHPFLTSLKYSFQTKDRLCFVMEYVNGGELFFHLSRERVFSEDRTRFYGAEIVSALDYLHSGKIVYRDLKLENLMLDKDGHIKITDFGLCKEGITDAATMKTFCGTPEYLAPEVLEDNDYGRAVDWWGLGVVMYEMMCGRLPFYNQDHEKLFELILMEDIKFPRTLSSDAKSLLSGLLIKDPNKRLGGGPDDAKEIMRHSFFSGVNWQDVYDKKLVPPFKPQVTSETDTRYFDEEFTAQTITITPPEKYDEDGMDCMDNERRPHFPQFSYSASGRE
Histone H2B [7]
  phosphorylation of histone H2B: The purified enzyme was able to phosphorylate histone H2B
